This test deals with T1, acetylcholinesterase (Rattus norvegicus, UniProt P37136).
T1 construct: obtained from rat's corpus striatum; from tissue; host or cells: rat corpus striatum
Nature of the test: Inhibition of acetylcholinesterase (enzyme assay). The class given is biochemical. Particulars: acetylcholinesterase from rat's corpus striatum. The protocol: The ability to inhibit acetylcholinesterase was determined by the method (enzyme assay) described in Clinica Chimica Acta, 115 (1981) 163-170. The acetylcholinesterase used in this test was obtained from rat's corpus striatum.

As a reminder, the IC50 is the concentration needed to halve the response being measured. Read a low IC50 as greater potency.

T1 sequence (P37136 32-614): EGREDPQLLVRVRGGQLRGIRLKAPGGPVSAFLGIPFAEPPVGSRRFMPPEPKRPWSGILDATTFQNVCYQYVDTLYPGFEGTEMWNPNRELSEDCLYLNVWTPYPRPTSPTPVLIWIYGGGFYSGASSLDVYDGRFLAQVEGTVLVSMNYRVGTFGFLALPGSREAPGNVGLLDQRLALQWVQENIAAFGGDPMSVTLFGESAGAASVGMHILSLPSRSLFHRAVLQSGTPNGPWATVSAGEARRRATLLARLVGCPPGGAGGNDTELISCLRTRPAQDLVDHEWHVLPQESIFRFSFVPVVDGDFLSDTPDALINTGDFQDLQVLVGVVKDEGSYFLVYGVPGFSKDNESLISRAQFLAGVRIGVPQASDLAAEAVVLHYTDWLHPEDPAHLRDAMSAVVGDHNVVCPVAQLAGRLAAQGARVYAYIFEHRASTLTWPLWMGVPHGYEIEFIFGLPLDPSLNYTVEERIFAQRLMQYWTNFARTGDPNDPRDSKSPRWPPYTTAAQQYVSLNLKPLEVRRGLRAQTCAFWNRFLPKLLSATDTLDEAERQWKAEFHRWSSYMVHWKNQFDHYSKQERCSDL

`O=C(NCCC1CCN(Cc2ccccc2)CC1)c1noc(C2CN3CCC2CC3)n1` (centres unmarked) [(a)] registered an IC50 of 8 nM.
The result for `O=C(NCCC1CCN(Cc2ccccc2)CC1)c1noc(-c2ccc([N+](=O)[O-])cc2)n1` [(b)] reads 1.7 nM.
